Reference: patent publication US20230075822A1, “USE OF CASTALAGIN OR ANALOGS THEREOF FOR ANTI-CANCER EFFICACY AND TO INCREASE THE RESPONSE TO IMMUNE CHECKPOINT INHIBITORS” (THE ROYAL INSTITUTION FOR THE ADVANCEMENT OF …, priority 2020, published 2023)

Tested on: MCA-205 sarcoma
Experiment: Subcutaneous MCA-205 sarcoma tumor model (anti-PD-1 sensitive), SPF-reared mice
Assay type: in vivo, C57BL/6 mice
Details: for anti-cancer activity (tumor size at sacrifice): in the presence of anti-PD-1
Protocol: FIG. 1A is a schematic of the protocol used to study the effect of a Camu camu extract (CC) alone and additive effect when combined to anti-PD-1 therapy in a murine tumor model sensitive to anti-PD-1 therapy. Syngeneic C57BL/6 mice were implanted with 0.8×10^6 MCA-205 sarcoma, subcutaneously and treated intraperitoneally (i.p.) when tumors reached 20 to 35 mm^2 in size with anti-PD-1 mAb (250 μg/mouse; clone RMP1-14,) or isotype control (clone 2A3) with or without daily oral gavage with 200 mg/kg of [NT] Powder from SunFood). Murine studies. All animal studies were approved by the Institutional Animal Care Committee (CIPA) and carried out in compliance with the Canadian Council on Animal Care guidelines. Murine experiments were conducted using seven-week-old female C57BL/6 mice, obtained from Charles River, Canada. Germ-free female C57BL/6 mice were purchased from the International Microbiome Centre Germ-Free Facility (University of Calgary, Canada) and maintained at the CR-CHUM Germ-Free Facility. Cell culture, reagents and tumor cell lines. MCA-205 fibrosarcoma cells and E0771 mammary adenocarcinoma cells, class I MHC H-2b syngeneic cell lines for C57BL/6 mice, were used for this study. MCA-205 cells were cultured at 37° C. in the presence of 5% CO2 in Roswell Park Memorial Institute (RPMI) 1640 (Gibco-lnvitrogen) containing 10% Fetal bovine serum (FBS) (Wisent), 2 mM L-glutamine (Wisent), 100 IU/ml penicillin/streptomycin (Wisent), 1 mM sodium pyruvate (Wisent) and MEM non-essential amino acids (Gibco-lnvitrogen). E0771 cells were cultured at 37° C. in the presence of 5% CO2 in Dulbecco's Modified Eagle's Medium (DMEM) (Gibco-lnvitrogen) containing 10% FBS (Wisent), 2 mM L-glutamine, 100 IU/ml penicillin/streptomycin (Wisent), 1 mM sodium pyruvate (Wisent). Subcutaneous model of MCA-205 sarcoma and E0771 breast cancer. Syngeneic C57BL/6 mice were implanted with 0.8×10^6 MCA-205 or 0.5×10^6 E0771 subcutaneously. When tumors reached 20 to 35 mm^2 in size, mice were treated four times (or two times for flow cytometry analysis, see section below) intraperitoneally (i.p.) every three day with anti-PD-1 monoclonal antibody (mAb) (250 μg/mouse; clone RMP1-14, BioXcell) or isotype control (clone 2A3, BioXcell). Upon treatment initiation, mice received a daily oral gavage with the following products: Myrciaria dubia, [NT] raw extract (Sunfood) (200 mg/kg per mouse), fractions from the extraction round 1 (P, INT, NP, Insol) (40.18 mg/kg per mouse), fractions from the extraction round 2 (P1, P2, P3 and P4) (equivalent to fraction P dose of 40.18 mg/kg per mouse), […] (extracted from CC, see isolation process below) (0.85 mg/kg per mouse), ellagic acid (0.85 mg/kg per mouse) (Sigma-Aldrich), urolithin A (0.85 mg/kg per mouse) (Sigma-Aldrich), […] (0.5 mg/kg per mouse) (PhytoProof®, Sigma-Aldrich) and castalagin at different concentration: 1/8, 1/6, 1/4, 1/2 of the standard concentration, at the standard concentration (0.85 mg/kg per mouse), 1.5-fold (1.25 mg/kg per mouse) and three-fold increase concentration (2.55 mg/kg per mouse) (PhytoProof©, Sigma-Aldrich or isolated from food grade oak, see isolation process below). In the control group mice received daily oral gavage with water (100 μL) Tumor area was routinely monitored every three days by means of a caliper. In the depletion experiments, we used the anti-CD8 mAb (150 μg/mouse; clone 53-6.7, BioXcell) or isotype control (clone 2A3, BioXcell.

O=C1OC[C@H]2OC(=O)c3cc(O)c(O)c(O)c3-c3c(O)c(O)c(O)c4c3C(=O)O[C@H]([C@H]3OC(=O)c5c-4c(O)c(O)c(O)c5[C@@H]3O)[C@@H]2OC(=O)c2cc(O)c(O)c(O)c2-c2c1cc(O)c(O)c2O [castalagin, Castalagin]
dose dependence of anti-cancer activity (6 concentrations from ⅛ to 3-fold the standard dose): dose-dependent effect with a potential plateau
antitumor effect (dose experiment, 1/4 concentration dose (0.21 mg/kg)): no antitumor effect
anti-cancer activity (tumor size at sacrifice) (dose experiment, 3-fold concentration (2.55 mg/kg per mouse)): did not the standard dose
anti-cancer activity (tumor size at sacrifice) (dose experiment, standard dose (0.85 mg/kg)): anti-cancer activity became significant
anti-cancer activity (tumor size at sacrifice) (dose experiment, ½ dose (0.42 mg/kg)): Some anti-cancer activity was observed
